Results published in patent US20250215029A1 (Recludix Pharma, Inc., priority 2022, published 2025).

How the values were obtained:
[1] = target: T1, Recombinant STAT3 protein (STAT3 (G127-I722)) (Homo sapiens, UniProt P40763); experiment: STAT3 Fluorescence Polarization (FP) Assay; format: binding; settings: STAT3 (G127-I722) 25 nM, probe 5-FAM-GpYLPQTV-NH2 2 nM, 45-minute incubation; read-out: STAT3 (FP assay IC50 class)
T1 construct: Recombinant STAT3 protein (STAT3 (G127-I722))
Outline: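 In this competition FP format, STAT3 residues G127-I722 (25 nM) and 2 nM 5-FAM-GpYLPQTV-NH2 met test compounds for 45 min at room temperature. IC50 values result from fitting mP signal against log concentration by nonlinear regression.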

[2] = target: T2, Recombinant STAT6 protein (STAT6 (W123-T658)) (Homo sapiens, UniProt P42226); experiment: STAT6 Fluorescence Polarization (FP) Assay; format: binding; settings: STAT6 (W123-T658) 250 nM, probe 5-FAM-Ap[…]-NH2 2 nM, 45-minute incubation; read-out: STAT6 (FP assay IC50 class)
T2 construct: Recombinant STAT6 protein (STAT6 (W123-T658))
T2 sequence (P42226 123-658): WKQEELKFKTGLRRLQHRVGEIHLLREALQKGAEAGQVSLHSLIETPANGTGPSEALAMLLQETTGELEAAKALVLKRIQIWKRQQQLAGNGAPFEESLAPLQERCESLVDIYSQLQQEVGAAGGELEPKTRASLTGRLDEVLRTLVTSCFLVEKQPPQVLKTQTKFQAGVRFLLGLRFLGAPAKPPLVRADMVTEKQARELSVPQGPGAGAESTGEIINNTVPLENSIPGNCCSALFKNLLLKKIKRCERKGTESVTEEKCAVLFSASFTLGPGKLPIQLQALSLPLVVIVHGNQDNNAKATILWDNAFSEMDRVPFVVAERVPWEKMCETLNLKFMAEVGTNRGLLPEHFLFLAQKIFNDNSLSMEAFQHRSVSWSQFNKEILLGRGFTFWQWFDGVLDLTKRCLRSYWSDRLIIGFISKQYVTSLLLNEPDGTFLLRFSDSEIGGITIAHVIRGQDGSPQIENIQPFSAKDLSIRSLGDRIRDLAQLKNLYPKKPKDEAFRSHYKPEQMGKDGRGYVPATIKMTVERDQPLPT
Outline: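 Protein-probe mix (250 nM STAT6 W123-T658, 2 nM 5-FAM-pTyr peptide) in 10 mM HEPES pH 7.4, 50 mM NaCl, 1 mM EDTA, 0.05% Tween 20, 2 mM DTT; added to compound dilution series, 1% DMSO final; 45 min RT; FP read; IC50 via nonlinear regression.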

T1 sequence (P40763 127-722): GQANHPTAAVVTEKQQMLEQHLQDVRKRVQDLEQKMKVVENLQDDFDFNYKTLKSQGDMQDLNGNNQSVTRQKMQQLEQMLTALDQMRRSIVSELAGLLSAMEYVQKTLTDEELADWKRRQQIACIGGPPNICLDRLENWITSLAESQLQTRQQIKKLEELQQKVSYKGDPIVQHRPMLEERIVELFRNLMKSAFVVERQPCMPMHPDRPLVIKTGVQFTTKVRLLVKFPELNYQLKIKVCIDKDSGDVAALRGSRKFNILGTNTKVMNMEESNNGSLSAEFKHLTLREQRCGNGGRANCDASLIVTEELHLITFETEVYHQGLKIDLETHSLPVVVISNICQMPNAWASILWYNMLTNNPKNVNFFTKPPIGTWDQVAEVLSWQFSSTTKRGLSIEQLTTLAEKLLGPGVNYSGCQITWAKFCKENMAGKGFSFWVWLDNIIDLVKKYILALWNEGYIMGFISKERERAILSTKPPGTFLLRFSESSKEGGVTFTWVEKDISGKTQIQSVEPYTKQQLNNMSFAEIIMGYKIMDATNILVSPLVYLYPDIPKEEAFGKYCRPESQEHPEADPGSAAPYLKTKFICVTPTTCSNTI

Cn1cncc(C2CN(C(=O)[C@@H]3CC[C@@H]4CCC[C@H](NC(=O)c5cc6cc(C(F)P(=O)(O)O)ccc6s5)C(=O)N43)C2)c1=O (stereo partly drawn) [Compound 624, (fluoro(2-(((3S,6S,9aS)-3-(3-(1-methyl-6-oxo-1,6-dihydropyrimidin-5-yl)azetidine-1-carbonyl)-5-oxooctahydro-1H-pyrrolo[1,2-a]azepin-6-yl)carbamoyl)benzo [b]thiophen-5-yl)methyl) phosphonic acid]
IC50 [1]: 1 to 10 µM | IC50 [2]: 3 to 30 µM

COc1c(F)cncc1C1CN(C(=O)[C@@H]2CC[C@@H]3CCC[C@H](NC(=O)c4cc5cc(C(F)P(=O)(O)O)ccc5s4)C(=O)N32)C1 (stereo partly drawn) [Compound 625, (fluoro(2-(((3S,6S,9aS)-3-(3-(5-fluoro-4-methoxypyridin-3-yl)azetidine-1-carbonyl)-5-oxooctahydro-1H-pyrrolo[1,2-a]azepin-6-yl)carbamoyl)benzo [b]thiophen-5-yl)methyl) phosphonic acid]
IC50 [1]: 0.1 to 1 µM | IC50 [2]: 3 to 30 µM

O=C(N[C@H]1CCC[C@H]2CC[C@@H](C(=O)N3CC(c4cnccc4N4CCOCC4)C3)N2C1=O)c1cc2cc(C(F)P(=O)(O)O)ccc2s1 (stereo partly drawn) [Compound 626, (fluoro(2-(((3S,6S,9aS)-3-(3-(4-morpholinopyridin-3-yl)azetidine-1-carbonyl)-5-oxooctahydro-1H-pyrrolo[1,2-a]azepin-6-yl)carbamoyl)benzo [b]thiophen-5-yl)methyl) phosphonic acid]
IC50 [1]: < 0.1 µM | IC50 [2]: 3 to 30 µM

CS(=O)(=O)CC1CN(C(=O)[C@@H]2CC[C@@H]3CCC[C@H](NC(=O)c4cc5cc(C(F)P(=O)(O)O)ccc5s4)C(=O)N32)C1 (stereo partly drawn) [Compound 627, (fluoro(2-(((3S,6S,9aS)-3-(3-((methylsulfonyl)methyl)azetidine-1-carbonyl)-5-oxooctahydro-1H-pyrrolo[1,2-a]azepin-6-yl)carbamoyl)benzo [b]thiophen-5-yl)methyl) phosphonic acid]
IC50 [1]: < 0.1 µM | IC50 [2]: 3 to 30 µM

Cn1cccc(C2CN(C(=O)[C@@H]3CC[C@@H]4CCC[C@H](NC(=O)c5cc6cc(C(F)P(=O)(O)O)ccc6s5)C(=O)N43)C2)c1=O (stereo partly drawn) [Compound 628, (fluoro(2-(((3S,6S,9aS)-3-(3-(1-methyl-2-oxo-1,2-dihydropyridin-3-yl)azetidine-1-carbonyl)-5-oxooctahydro-1H-pyrrolo[1,2-a]azepin-6-yl)carbamoyl)benzo [b]thiophen-5-yl)methyl) phosphonic acid]
IC50 [1]: < 0.1 µM | IC50 [2]: 3 to 30 µM

COc1c(C2CN(C(=O)[C@@H]3CC[C@@H]4CCC[C@H](NC(=O)c5cc6cc(C(F)P(=O)(O)O)ccc6s5)C(=O)N43)C2)cnn1C (stereo partly drawn) [Compound 629, (fluoro(2-(((3S,6S,9aS)-3-(3-(5-methoxy-1-methyl-1H-pyrazol-4-yl)azetidine-1-carbonyl)-5-oxooctahydro-1H-pyrrolo[1,2-a]azepin-6-yl)carbamoyl)benzo [b]thiophen-5-yl)methyl) phosphonic acid]
IC50 [1]: 0.1 to 1 µM | IC50 [2]: 3 to 30 µM

O=C(N[C@H]1CCC[C@H]2CC[C@@H](C(=O)N3CC4(C3)OCc3ccncc34)N2C1=O)c1cc2cc(C(F)P(=O)(O)O)ccc2s1 (stereo partly drawn) [Compound 630, (fluoro(2-(((3S,6S,9aS)-5-oxo-3-(1′H-spiro[azetidine-3,3′-furo [3,4-c]pyridine]-1-carbonyl)octahydro-1H-pyrrolo[1,2-a]azepin-6-yl)carbamoyl)benzo [b]thiophen-5-yl)methyl) phosphonic acid]
IC50 [1]: 0.1 to 1 µM | IC50 [2]: 3 to 30 µM

O=C(N[C@H]1CCC[C@H]2CC[C@@H](C(=O)N3CC(c4cnccc4OC(F)F)C3)N2C1=O)c1cc2cc(CP(=O)(O)O)ccc2s1 [Compound 632, ((2-(((3S,6S,9aS)-3-(3-(4-(difluoromethoxy)pyridin-3-yl)azetidine-1-carbonyl)-5-oxooctahydro-1H-pyrrolo[1,2-a]azepin-6-yl)carbamoyl)benzo [b]thiophen-5-yl)methyl) phosphonic acid]
IC50 [1]: 1 to 10 µM | IC50 [2]: 3 to 30 µM

COc1ccn(C2CN(C(=O)[C@@H]3CC[C@@H]4CCC[C@H](NC(=O)c5cc6cc(C(F)P(=O)(O)O)ccc6s5)C(=O)N43)C2)n1 (stereo partly drawn) [Compound 633, (fluoro(2-(((3S,6S,9aS)-3-(3-(3-methoxy-1H-pyrazol-1-yl)azetidine-1-carbonyl)-5-oxooctahydro-1H-pyrrolo[1,2-a]azepin-6-yl)carbamoyl)benzo [b]thiophen-5-yl)methyl) phosphonic acid]
IC50 [1]: 0.1 to 1 µM | IC50 [2]: 3 to 30 µM

Cn1ncc(C2CN(C(=O)[C@@H]3CC[C@@H]4CCC[C@H](NC(=O)c5cc6cc(C(F)P(=O)(O)O)ccc6s5)C(=O)N43)C2)c1F (stereo partly drawn) [Compound 635, (fluoro(2-(((3S,6S,9aS)-3-(3-(5-fluoro-1-methyl-1H-pyrazol-4-yl)azetidine-1-carbonyl)-5-oxooctahydro-1H-pyrrolo[1,2-a]azepin-6-yl)carbamoyl)benzo [b]thiophen-5-yl)methyl) phosphonic acid]
IC50 [1]: 0.1 to 1 µM | IC50 [2]: 3 to 30 µM

O=C(N[C@H]1CCC[C@H]2CC[C@@H](C(=O)N[C@H]3CN(c4ncc[nH]4)C[C@@H]3F)N2C1=O)c1cc2cc([C@H](F)P(=O)(O)O)ccc2s1 [Compound 637, ((R)-fluoro(2-(((3S,6S,9aS)-3-(((3S,4S)-4-fluoro-1-(1H-imidazol-2-yl)pyrrolidin-3-yl)carbamoyl)-5-oxooctahydro-1H-pyrrolo[1,2-a]azepin-6-yl)carbamoyl)benzo [b]thiophen-5-yl)methyl) phosphonic acid]
IC50 [1]: < 0.1 µM | IC50 [2]: 0.3 to 3 µM

C[C@H]1C[C@H]2CC[C@@H](C(=O)N3CC(c4cnccc4N(C)C)C3)N2C(=O)[C@@H](NC(=O)c2cc3cc(CP(=O)(O)O)ccc3s2)C1 [Compound 638, ((2-(((3S,6S,8R,9aR)-3-(3-(4-(dimethylamino)pyridin-3-yl)azetidine-1-carbonyl)-8-methyl-5-oxooctahydro-1H-pyrrolo[1,2-a]azepin-6-yl)carbamoyl)benzo [b]thiophen-5-yl)methyl) phosphonic acid]
IC50 [1]: < 0.1 µM | IC50 [2]: 3 to 30 µM

C[C@@H]1C[C@H]2CC[C@@H](C(=O)N3CC(c4cnccc4N(C)C)C3)N2C(=O)[C@@H](NC(=O)c2cc3cc(CP(=O)(O)O)ccc3s2)C1 [Compound 639, ((2-(((3S,6S,8S,9aR)-3-(3-(4-(dimethylamino)pyridin-3-yl)azetidine-1-carbonyl)-8-methyl-5-oxooctahydro-1H-pyrrolo[1,2-a]azepin-6-yl)carbamoyl)benzo [b]thiophen-5-yl)methyl) phosphonic acid]
IC50 [1]: < 0.1 µM | IC50 [2]: 3 to 30 µM

O=C(N[C@H]1CCCC[C@H]2CC[C@@H](C(=O)NCc3cnc4[nH]cnc4c3)N2C1=O)c1cc2cc(CP(=O)(O)O)ccc2s1 [Compound 640, ((2-(((3S,6S,10aS)-3-(((3H-imidazo[4,5-b]pyridin-6-yl)methyl)carbamoyl)-5-oxodecahydropyrrolo [1,2-a]azocin-6-yl)carbamoyl)benzo [b]thiophen-5-yl)methyl) phosphonic acid]
IC50 [1]: 0.1 to 1 µM | IC50 [2]: 3 to 30 µM

C/C1=C/C[C@H](NC(=O)c2cc3cc(C(F)(F)P(=O)(O)O)ccc3s2)C(=O)N2[C@H](CC[C@H]2C(=O)N2CC(c3cnccc3C)C2)C1 [Compound 641, (difluoro(2-(((3S,6S,10aR,Z)-9-methyl-3-(3-(4-methylpyridin-3-yl)azetidine-1-carbonyl)-5-oxo-1,2,3,5,6,7,10,10a-octahydropyrrolo[1,2-a]azocin-6-yl)carbamoyl)benzo [b]thiophen-5-yl)methyl) phosphonic acid]
IC50 [1]: < 0.1 µM | IC50 [2]: 0.3 to 3 µM

C/C1=C/C[C@H](NC(=O)c2cc3cc(CP(=O)(O)O)ccc3s2)C(=O)N2[C@H](CC[C@H]2C(=O)N2CC(c3cnccc3C)C2)C1 [Compound 642, ((2-(((3S,6S,10aR,Z)-9-methyl-3-(3-(4-methylpyridin-3-yl)azetidine-1-carbonyl)-5-oxo-1,2,3,5,6,7,10,10a-octahydropyrrolo[1,2-a]azocin-6-yl)carbamoyl)benzo [b]thiophen-5-yl)methyl) phosphonic acid]
IC50 [1]: 0.1 to 1 µM | IC50 [2]: 3 to 30 µM

C/C1=C/[C@H]2CC[C@@H](C(=O)N3CC(c4cnccc4C)C3)N2C(=O)[C@@H](NC(=O)c2cc3cc(C(F)(F)P(=O)(O)O)ccc3s2)CC1 [Compound 643, (difluoro(2-(((3S,6S,10aR,Z)-9-methyl-3-(3-(4-methylpyridin-3-yl)azetidine-1-carbonyl)-5-oxo-1,2,3,5,6,7,8,10a-octahydropyrrolo[1,2-a]azocin-6-yl)carbamoyl)benzo [b]thiophen-5-yl)methyl) phosphonic acid]
IC50 [1]: < 0.1 µM | IC50 [2]: 0.3 to 3 µM
